Laboratory results from patent EP4752152A1, “STEROID COMPOUND, AND PREPARATION METHOD THEREFOR AND USE THEREOF” (Cholesgen (Shanghai) Co.Ltd., priority 2023, dated 2025).
pIC50: −log10 of the molar value. Where two headings read alike, the source gives them in different places.

Legend:
[1] = tested on: Fatty Acid Synthase (FASN) gene; test: Inhibition of FASN gene expression (qPCR) in Huh-7 cells; type: cell-based, human; settings: Homo sapiens, Huh-7 cells, starvation medium, 16 hours, qPCR, class symbols, read-out: FASN IC50
How it was run: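 Huh-7 cells switched to starvation DMEM (5% LPDS, 2 µM lovastatin, 10 µM mevalonate) and treated 16 h with compound, top 3000 nM, 3-fold dilutions, 5 concentrations. FASN mRNA by RT-qPCR; inhibition relative to DMSO, IC50 from four-parameter fit.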

[2] = tested on: SREBP pathway; test: SREBP luciferase reporter gene system (SRE-luciferase assay); type: cell-based, human; settings: Homo sapiens, Huh-7/SRE-luc cells, sterol-deficient medium, 0.01-10 µM
How it was run: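 Huh-7 cells stably carrying LDLR promoter-luciferase plus GFP were treated 16 h in sterol-deficient medium (5% lipoprotein-deficient serum, 2 µM lovastatin, 10 µM mevalonic acid) at 0.01–10 µM. Luciferase/GFP ratio measured as pathway activity; inhibition versus DMSO fitted to a four-parameter model for IC50.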

Compound | pIC50 ([1]; Huh-7, 16 h) | IC50 ([2]; Huh-7, 16 h) [µM] | pIC50 [1] | IC50 ([2]; 16 hours) [µM]
C[C@H](CCCC(O)c1ccc(F)cc1)[C@H]1CC[C@H]2C3=C(F)C[C@H]4[C@@H](O)[C@@H](O)CC[C@]4(C)[C@H]3CC[C@]12C (stereo partly drawn) [Compound 101, (1R,3aR,5aR,6R,7S,9aR,9bR,11aR)-4-fluoro-1-[(2R)-6-(4-fluorophenyl)-6-hydroxyhexan-2-yl]-9a,11a-dimethyl-2,3,3a,5,5a,6,7,8,9,9a,9b,10,11,11a-tetradecahydro-1H-cyclopenta[1,2-a]phenanthrene-6,7-diol] | 6.30 to 6.70 | 0.298 |  | 
C[C@H](CCCC(O)c1ccc(F)cc1F)[C@H]1CC[C@H]2[C@H]3[C@H](CC[C@]12C)[C@@]1(C)CC[C@H](O)[C@H](O)[C@@H]1CC3(F)F (stereo partly drawn) [Compound 102, (1R,3aS,3bS,5aR,6R,7S,9aR,9bS,11aR)-1-[(2R)-6-(2,4-difluorophenyl)-6-hydroxyhexan-2-yl]-4,4-difluoro-9a,11a-dimethylhexadecahydro-1H-cyclopenta[1,2-a]phenanthrene-6,7-diol] | > 6.70 | 0.14 |  | 
COc1cccc(F)c1C(O)CCC[C@@H](C)[C@H]1CC[C@H]2C3=C(F)C[C@H]4[C@@H](O)[C@@H](O)CC[C@]4(C)[C@H]3CC[C@]12C (stereo partly drawn) [Compound 105, (1R,3aR,5aR,6R,7S,9aR,9bR,11aR)-4-fluoro-1-[(2R)-6-(2-fluoro-6-methoxyphenyl)-6-hydroxyhexan-2-yl]-9a,11a-dimethyl-2,3,3a,5,5a,6,7,8,9,9a,9b,10,11,11a-tetradecahydro-1H-cyclopenta[1,2-a]phenanthrene-6,7-diol] | 6.30 to 6.70 | 0.109 |  | 
COc1nc(F)ccc1C(O)CCC[C@@H](C)[C@H]1CC[C@H]2C3=C(F)C[C@H]4[C@@H](O)[C@@H](O)CC[C@]4(C)[C@H]3CC[C@]12C (stereo partly drawn) [Compound 107, (1R,3aR,5aR,6R,7S,9aR,9bR,11aR)-4-fluoro-1-[(2R)-6-(6-fluoro-2-methoxypyridin-3-yl)-6-hydroxyhexan-2-yl]-9a,11a-dimethyl-2,3,3a,5,5a,6,7,8,9,9a,9b,10,11,11a-tetradecahydro-1H-cyclopenta[1,2-a]phenanthrene-6,7-diol] | 6.30 to 6.70 | 0.0777 |  | 
COc1cc(Cl)ccc1[C@H](O)CCC[C@@H](C)[C@H]1CC[C@H]2[C@H]3[C@H](CC[C@]12C)[C@@]1(C)CC[C@H](O)[C@H](O)[C@@H]1CC3(F)F [Compound 113, (1R,3aS,3bS,5aR,6R,7S,9aR,9bS,11aR)-1-[(2R,6R)-6-(4-chloro-2-methoxyphenyl)-6-hydroxyhexan-2-yl]-4,4-difluoro-9a,11a-dimethylhexadecahydro-1H-cyclopenta[1,2-a]phenanthrene-6,7-diol] | 6.30 to 6.70 | 0.228 |  | 
COc1ccc(C(O)CCC[C@@H](C)[C@H]2CC[C@H]3[C@H]4[C@H](CC[C@]23C)[C@@]2(C)CC[C@H](O)[C@H](O)[C@@H]2CC4(F)F)c(OC)n1 (stereo partly drawn) [Compound 177, (1R,3aS,3bS,5aR,6R,7 S,9aR,9bS,11aR)-1-[(2R)-6-(2,6-Dimethoxypyridin-3-yl)-6-hydroxyhexan-2-yl]-4,4-difluoro-9a,11a-dimethylhexadecahydro-1H-cyclopenta[1,2-a]phenanthrene-6,7-diol] | > 6.70 | 0.186 |  | 
COc1cc(F)ccc1C(O)CCC[C@@H](C)[C@H]1CC[C@H]2[C@H]3[C@H](CC[C@]12C)[C@@]1(C)CC[C@H](O)C(=O)[C@@H]1CC3(F)F (stereo partly drawn) [Compound 184, (1R,3aS,3bS,5aR,7S,9aR,9bS,11aR)-4,4-difluoro-1-[(2R)-6-(4-fluoro-2-methoxyphenyl)-6-hydroxyhexan-2-yl]-7-hydroxy-9a,11a-dimethylhexadecahydro-1H-cyclopenta[1,2-a]phenanthren-6-one] | > 6.70 | 0.031 |  | 
COc1nc(F)cc(F)c1C(O)CCC[C@@H](C)[C@H]1CC[C@H]2[C@H]3[C@H](CC[C@]12C)[C@@]1(C)CC[C@H](O)[C@H](O)[C@@H]1CC3(F)F (stereo partly drawn) [Compound 206, (1R,3aS,3bS,5aR,6R,7S,9aR,9bS,11aR)-1-[(2R)-6-(4,6-difluoro-2-methoxypyridin-3-yl)-6-hydroxyhexan-2-yl]-4,4-difluoro-9a,11a-dimethylhexadecahydro-1H-cyclopenta[1,2-a]phenanthrene-6,7-diol] | 6.30 to 6.70 | 0.145 |  | 
C[C@H](CCCC(O)c1nc2cccc(Br)c2n1C)[C@H]1CC[C@H]2[C@H]3[C@H](CC[C@]12C)[C@@]1(C)CC[C@H](O)[C@H](O)[C@@H]1CC3(F)F (stereo partly drawn) [Compound 212, (1R,3aS,3bS,5aR,6R,7 S,9aR,9bS,11aR)-1-[(2R)-6-(7-Bromo-1-methylbenzo[d]imidazol-2-yl)-6-hydroxyhexan-2-yl]-4,4-difluoro-9a,11a-dimethylhexadecahydro-1H-cyclopenta[1,2-a]phenanthrene-6,7-diol] | 6.30 to 6.70 | 0.08 |  | 
C[C@H](CCCC(O)c1cccc2ncn(C)c12)[C@H]1CC[C@H]2[C@H]3[C@H](CC[C@]12C)[C@@]1(C)CC[C@H](O)[C@H](O)[C@@H]1CC3(F)F (stereo partly drawn) [Compound 261, (1R,3aS,3bS,5aR,6R,7 S,9aR,9bS,11aR)-4,4-Difluoro-1-[(2R)-6-hydroxy-6-(3-methylbenzo[d]imidazol-4-yl)hexan-2-yl]-9a,11a-dimethylhexadecahyd ro-1H-cyclopenta[1,2-a]phenanthrene-6,7-diol] | > 6.70 | 0.001 |  | 
COc1nc(F)ccc1C(O)CCC[C@@H](C)[C@H]1CC[C@H]2[C@H]3[C@H](CC[C@]12C)[C@@]1(C)CC[C@H](O)C[C@@H]1CC3(F)F (stereo partly drawn) [Compound 301, (1R,3aS,3bR,5aR,7S,9aS,9bS,11aR)-4,4-difluoro-1-[(2R)-6-(6-fluoro-2-methoxypyridin-3-yl)-6-hydroxyhexan-2-yl]-9a,11a-dimethylhexadecahydro-1H-cyclopenta[1,2-a]phenanthren-7-ol] | 6.30 to 6.70 | 0.076 |  | 
COc1cccc(F)c1C(O)CCC[C@@H](C)[C@H]1CC[C@H]2[C@H]3[C@H](CC[C@]12C)[C@@]1(C)CC[C@H](O)C[C@@H]1CC3(F)F (stereo partly drawn) [Compound 302, (1R,3aS,3bR,5aR,7S,9aS,9bS,11aR)-4,4-difluoro-1-[(2R)-6-(2-fluoro-6-methoxyphenyl)-6-hydroxyhexan-2-yl]-9a,11a-dimethylhexadecahydro-1H-cyclopenta[1,2-a]phenanthren-7-ol] | > 6.70 | 0.085 |  | 
C[C@H](CCCC(O)c1nc2ccccc2[nH]1)[C@H]1CC[C@H]2[C@H]3[C@H](CC[C@]12C)[C@@]1(C)CC[C@H](O)[C@H](O)[C@@H]1CC3(F)F (stereo partly drawn) [Compound 303, (1R,3aS,3bS,5aR,6R,7 S,9aR,9bS,11aR)-4,4-Difluoro-1-[(2R)-6-hydroxy-6-(1H-benzo[d]imidazol-2-yl)hexan-2-yl]-9a,11a-dimethylhexadecahydro-1H-cyclopenta[1,2-a]phenanthrene-6,7-diol] | > 6.70 | 0.109 |  | 
C[C@H](CCC[C@@H](O)c1nc2ccccc2n1C)[C@H]1CC[C@H]2[C@H]3[C@H](CC[C@]12C)[C@@]1(C)CC[C@H](O)[C@H](O)[C@@H]1CC3(F)F [Compound 307, (1R,3aS,3bS,5aR,6R,7S,9aR,9bS,11aR)-4,4-difluoro-1-[(2R,6R)-6-hydroxy-6-(1-methylbenzo[d]imidazol-2-yl)hexan-2-yl]-9a,11a-dimethylhexadecahydro-1H-cyclopenta[1,2-a]phenanthrene-6,7-diol] | > 6.70 | 0.054 |  | 
C[C@H](CCCC(O)c1nc2cnccc2n1C)[C@H]1CC[C@H]2[C@H]3[C@H](CC[C@]12C)[C@@]1(C)CC[C@H](O)[C@H](O)[C@@H]1CC3(F)F (stereo partly drawn) [Compound 311, (1R,3aS,3bS,5aR,6R,7 S,9aR,9bS,11aR)-4,4-Difluoro-1-[(2R)-6-hydroxy-6-(1-methylimidazo[5,4-c]pyridin-2-yl)hexan-2-yl]-9a,11a-dimethylhexadecahydro-1H-cyclopenta[1,2-a]phenanthrene-6,7-diol] | > 6.70 | 0.072 |  | 
COc1nc(F)ccc1[C@H](O)CCC[C@@H](C)[C@H]1CC[C@H]2[C@H]3[C@H](CC[C@]12C)[C@@]1(C)CC[C@H](O)C[C@@H]1CC3(F)F [Compound 313, (1R,3aS,3bR,5aR,7S,9aS,9bS,11aR)-4,4-difluoro-1-[(2R,6R)-6-(6-fluoro-2-methoxypyridin-3-yl)-6-hydroxyhexan-2-yl]-9a,11a-dimethylhexadecahydro-1H-cyclopenta[1,2-a]phenanthren-7-ol] | 6.05 to 6.30 | 0.076 |  | 
C[C@H](CCCC(O)c1ccc(F)nc1OC1CC1)[C@H]1CC[C@H]2[C@H]3[C@H](CC[C@]12C)[C@@]1(C)CC[C@H](O)C[C@@H]1CC3(F)F (some centres unmarked) [Compound 335] |  |  | > 6.70 | 0.045
COc1cccc(F)c1[C@H](O)CC[C@@H](C)[C@H]1CC[C@H]2[C@H]3[C@H](CC[C@]12C)[C@@]1(C)CC[C@H](O)[C@H](O)[C@@H]1CC3(F)F [Compound 346, (1R,3aS,3bS,5aR,6R,7S,9aR,9bS,11aR)-4,4-difluoro-1-[(2R,5R)-5-(2-fluoro-6-methoxyphenyl)-5-hydroxypentan-2-yl]-9a,11a-dimethylhexadecahydro-1H-cyclopenta[1,2-a]phenanthrene-6,7-diol] | > 6.70 | 0.056 |  | 
C[C@H](CCCC(O)c1nnnn1C)[C@H]1CC[C@H]2[C@H]3[C@H](CC[C@]12C)[C@@]1(C)CC[C@H](O)C[C@@H]1CC3(F)F (stereo partly drawn) [Compound 373, (1R,3aS,3bR,5aR,7S,9aS,9bS,11aR)-4,4-difluoro-1-[(2R)-6-hydroxy-6-(1-methyl-1,2,3,4-tetrazol-5-yl)hexan-2-yl]-9a,11a-dimethylhexadecahydro-1H-cyclopenta[1,2-a]phenanthren-7-ol] | > 6.70 | 0.078 |  | 
